System: guinea pigs
Test: Protracted hypoglycemia in guinea pigs after subcutaneous injection of insulin derivative preparations
Format: in vivo
Protocol: 25 ml of a medium containing 1.6 %(w/v) of glycerol. 0.33 % (w/v) of m-cresol, 1/75 M of sodium phosphate, pH value 7.3, were prepared. The solution was sterilized by filtration. 1.5 mg of human insulin-B21-methyl ester, prepared as described in Example 1, were suspended in 1.0 ml of medium.
4.5 mg of human insulin-A17-methyl ester were dissolved in 2.7 ml of 0.015 M phosphoric acid. 21 mg of sodium chloride and 4.1 μliters of an aqueous solution of 152 mM zinc chloride were added. The solution was sterilized by filtration. The pH value of the solution was adjusted to 8.0 under aseptic conditions with a sterile aqueous solution of sodium hydroxide. The pH value of the solution was then readjusted to 7.3 with sterile hydrochloric acid, and rhombohedral crystals with a mean size of 10 μm were formed with gentle stirring at 21° C. The volume was adjusted to 3 ml with sterile water.
Moreover, a sterile solution of 3 ml of 13.5 mM phosphoric acid in admixture with 21 mg of sodium chloride and 9 μliters of m-cresol was prepared, and the pH value was adjusted to 7.3 with a sterile aqueous solution of sodium hydroxide. The two solutions were combined.
15 mg of human insulin-A4-gln, obtained as described in Example 5, was dissolved in 10 ml of a solution containing 13.5 mM phosphoric acid, 0.3 % m-cresol and 1.6 % glycerol. The solution was sterilized by filtration, and the pH value was adjusted to 9,0 with a sterile solution of sodium hydroxide. The pH value was readjusted to 8.2 with a sterile solution of hydrochloric acid, and human insulin-A4-gln crystallized as rhombohedral crystals with gentle stirring.

With human insulin-A4-gln the “protracted hypoglycemic effect compared with "Insulatard"” value (subcutaneous injection of crystalline suspension at 0.5 IU/kg, "Insulatard" at 0.5 IU/kg) was “nearly identical both in timing and amplitude”.

With human insulin-A17-methyl ester the “biological activity (area below the blood glucose curve) compared with human insulin” value (dosage 18 μg/kg, crystalline zinc preparation) was “nearly the same biological activity as human insulin”, the “protracted insulin action compared with "Insulatard"” value (dosage 18 μg/kg, crystalline zinc preparation, comparator "Insulatard") was “longer than the protracted action of the known injection preparation” and the hypoglycemia induced (dosage 18 μg/kg, crystalline zinc preparation, pH 7.3) was “strongly protracted hypoglycemia”.

human insulin-B21-methyl ester was tested, and the “protracted insulin action compared with "Insulatard"” value (subcutaneous, zinc-free preparation, comparator standard protamin insulin preparation "Insulatard") was “comparable to the hypoglycemia observed after injection of a standard protamin insulin preparation” and the “hypoglycemia after subcutaneous administration” value (subcutaneous, zinc-free suspension 1.5 mg in 1.0 ml medium, pH 7.3) was “protracted hypoglycemia was observed”.

Reference: US5028586A, “Insulin derivatives and pharmaceutical preparations containing these derivatives” (Novo Norkisk A/S, priority 1985, dated 1991)
